Measured values taken from patent US20250134874A1, “PHARMACEUTICAL FORMULATIONS COMPRISING 3-({[(4R)-7-{METHYL[4-(PROPAN-2-YL)PHENYL]AMINO}-3,4-DIHYDRO-2H-1-BENZOPYRAN-4-YL]METHYL}AMINO)PYRIDINE-4-CARBOXYLIC ACID” (TACHYON THERAPEUTICS, INC., priority 2021, published 2025).

Tested on: 301 cancer cell lines from different tumor types (OncoPanel; HD Biosciences)
Test: 2D cell viability inhibition assay (CellTiter-Glo) in cancer cell line panel
Assay type: cell-based
Design: key to AUC: AUC as fraction of the no-inhibition area (dose range × 0–100 % of control)
Settings: for Emax: in %
Protocol: In a larger screening study, compound 1 was evaluated across a broad cancer cell line panel (OncoPanel; HD Biosciences) composed of 301 cancer cell lines from different tumor types.
2D cell viability inhibition assays were performed in multiwell plates seeded with cells from the panel. After seeding, the plates were cultured overnight in a humidified incubator at 37° C. to promote adherence. Assays were initiated in individual wells by adding either DMSO as a vehicle control, growth media as a blank, or serially diluted compound 1 (10 μM to 0.0005 μM with 1:3 serial dilution). Cultures were incubated for 168 hours after which the number of viable cells in each test well was assessed using the CellTiter-Glo® Luminescent Cell Viability Assay. Luminescence readouts were performed using an EnVision® Multilabel Reader and the compound 1 readouts were normalized to the DMSO control readouts, expressed as a percent of the control. Outliers were flagged out by visual inspection. Percent of control was plotted against the corresponding compound 1 concentration and the absolute IC50 value was determined using four-parameter logistic non-linear regression as the concentration where inhibition was 50% of the control. For maximum inhibition <50%, the absolute IC50 was reported as >10. In addition to EC50 and IC50, AUC was determined and was normalized to the area corresponding to theoretical no-inhibition (the rectangular area defined by the compound dose range and 0 to 100 in y). Emax was recorded as the minimum in y with the compound dose range. For those cell lines where Emax>40, EC50 was manually set to 10 μM. A hierarchical clustering algorithm based on Euclidean distance between the standardized input values and “Ward.D” method as implemented in R hclust function was used to visualize the compound 1 cellular potency data. The sensitive/moderate/resistant calls for each cell line was determined by visually inspecting the resulting clustering dendrogram. All the analyses were done in R Core Team.

[1] = Homo sapiens, 143B, 143B cell line
[2] = Homo sapiens, 647-V, 647V cell line
[3] = Homo sapiens, 786-0, 7860 cell line
[4] = Homo sapiens, A101D, A101D cell line
[5] = Homo sapiens, A549, A549 cell line
[6] = Homo sapiens, A2058, A2058 cell line
[7] = Homo sapiens, A2780, A2780 cell line
[8] = Homo sapiens, A-375, A375 cell line
[9] = Homo sapiens, ACHN, ACHN cell line
[10] = Homo sapiens, AGS, AGS cell line
[11] = Homo sapiens, ASPC1, ASPC1 cell line
[12] = Homo sapiens, AZ-521, AZ521 cell line
[13] = Homo sapiens, BFTC-905, BFTC905 cell line
[14] = Homo sapiens, BT-549, BT549 cell line
[15] = Homo sapiens, BXPC-3, BXPC3 cell line
[16] = Homo sapiens, C32, C32 cell line
[17] = Homo sapiens, CAKI-1, CAKI1 cell line
[18] = Homo sapiens, CFPAC-1, CFPAC1 cell line
[19] = Homo sapiens, CHL-1, CHL1 cell line
[20] = Homo sapiens, COLO 205, COLO205 cell line
[21] = Homo sapiens, COLO-320-HSR, COLO320HSR cell line
[22] = Homo sapiens, COLO-679, COLO679 cell line
[23] = Homo sapiens, COLO-680N, COLO680N cell line
[24] = Homo sapiens, COLO-741, COLO741 cell line
[25] = Homo sapiens, COR-L279, CORL279 cell line

## CC(C)c1ccc(N(C)c2ccc3c(c2)OCC[C@H]3CNc2cnccc2C(=O)O)cc1 [Compound 1, 3-({[(4R)-7-{methyl[4-(propan-2-yl)phenyl]amino}-3,4-dihydro-2H-1-benzopyran-4-yl]methyl}amino)pyridine-4-carboxylic acid]
HCC1599 cell line
  AUC: 0.4639
  Emax: 32.7
HCC1806 cell line
  AUC: 0.5325
  Emax: 36.87
HCC1937, breast, ductal carcinoma, 168 hours
  AUC: 0.9094
HCC1954 cell line
  AUC: 0.5912
HCC2935 cell line
  AUC: 0.6922
HCT15 cell line
  AUC: 0.1838
  Emax: 4.541
HCT116 cell line
  AUC: 0.5356
HEL cell line
  AUC: 0.5268
  Emax: 28.89
HEP3B217 cell line
  AUC: 0.6448
  IC50: 129 nM
HEPG2 cell line
  AUC: 0.6086
HL60 cell line
  AUC: 0.3703
  Emax: 9.446
HLE cell line
  AUC: 0.3839
  Emax: 7.876
HLF cell line
  AUC: 0.4657
  Emax: 18.25
HLF, HLF cell line
  EC50: 11.5 nM
  IC50: 18 nM
HMCB cell line
  AUC: 0.5041
  Emax: 32.25
HPAC cell line
  AUC: 0.3965
HS294T cell line
  AUC: 0.6005
HS578T cell line
  AUC: 0.5373
  Emax: 32.75
HS688AT, skin, NS, 168 hours
  AUC: 1.105
HS695T, skin, NS, 168 hours
  AUC: 0.9238
HS739T, breast, NS, 168 hours
  AUC: 0.8686
HS839T, skin, NS, 168 hours
  AUC: 1.097
HS852T, skin, NS, 168 hours
  AUC: 0.883
HSC2 cell line
  AUC: 0.4511
  Emax: 26.01
HSC3 cell line
  AUC: 0.6313
HSC4 cell line
  AUC: 0.4347
  Emax: 23.28
HT29 cell line
  AUC: 0.5741
HT55 cell line
  AUC: 0.4704
  Emax: 22.172
HT144, skin, NS, 168 hours
  AUC: 0.8912
HT1080 cell line
  AUC: 0.5438
  Emax: 29.74
HT1376 cell line
  AUC: 0.5519
HUH1 cell line
  AUC: 0.4145
  Emax: 11.68
HUH7 cell line
  AUC: 0.3926
  Emax: 7.054
HUH28, biliary tract, NS, 168 hours
  AUC: 0.9862
HUTU80 cell line
  AUC: 0.3016
[1]
  EC50: 13.9 nM
  IC50: 14.4 nM
[2]
  EC50: 11.2 nM
  IC50: 12.2 nM
[3]
  EC50: 11.7 nM
  IC50: 22.5 nM
[4]
  EC50: 6.91 nM
  IC50: 11 nM
Homo sapiens, A204, 168 h, A204, soft tissue, NS, 168 hours
  IC50: > 10000 nM
[5]
  EC50: 18.5 nM
  IC50: 32.4 nM
[6]
  EC50: 28.1 nM
  IC50: 46.8 nM
[7]
  EC50: 2.1 nM
  IC50: 2.14 nM
[8]
  EC50: 7.62 nM
  IC50: 10.6 nM
[9]
  EC50: 30.3 nM
  IC50: 34.7 nM
[10]
  EC50: 5.18 nM
  IC50: 6.19 nM
[11]
  EC50: 18.9 nM
  IC50: 66.8 nM
[12]
  EC50: 3.84 nM
  IC50: 4.19 nM
[13]
  EC50: 8.93 nM
  IC50: 9.91 nM
Homo sapiens, BT-20, 168 h, BT20, breast, ductal carcinoma, 168 hours
  IC50: > 10000 nM
Homo sapiens, BT-474, 168 h, BT474, breast, ductal carcinoma, 168 hours
  IC50: > 10000 nM
[14]
  EC50: 5.84 nM
  IC50: 9.98 nM
[15]
  EC50: 8.45 nM
  IC50: 19.4 nM
Homo sapiens, C2BBe1, 168 h, C2BBE1, large intestine, adenocarcinoma, 168 hours
  IC50: > 10000 nM
[16]
  EC50: 5.18 nM
  IC50: 5.36 nM
[17]
  EC50: ≥ 10000 nM
  IC50: 4.43 nM
Homo sapiens, CAL-27, 168 h, CAL27, upper aerodigestive tract, squamous cell carcinoma, 168 hours
  IC50: > 10000 nM
Homo sapiens, CAPAN-1, CAPAN1 cell line
  IC50: 116 nM
Homo sapiens, CCF-STTG1, 168 h, CCFSTTG1, central nervous system, astrocytoma, 168 hours
  IC50: > 10000 nM
[18]
  EC50: 11.3 nM
  IC50: 15.3 nM
[19]
  EC50: 4.68 nM
  IC50: 6.08 nM
[20]
  EC50: 5.97 nM
  IC50: 11.5 nM
[21]
  EC50: 4.46 nM
  IC50: 4.61 nM
[22]
  EC50: 2340 nM
  IC50: 2040 nM
[23]
  EC50: 4.79 nM
  IC50: 6.97 nM
[24]
  EC50: 6.86 nM
  IC50: 10.4 nM
Homo sapiens, COLO-829, COLO829 cell line
  IC50: > 10000 nM
[25]
  EC50: 4.23 nM
  IC50: 4.34 nM
Homo sapiens, Calu-1, 168 h, CALU1, lung, squamous cell carcinoma, 168 hours
  IC50: > 10000 nM
Homo sapiens, Calu-3, 168 h, CALU3, lung, adenocarcinoma, 168 hours
  IC50: > 10000 nM
Homo sapiens, Calu-6, CALU6 cell line
  EC50: 11.5 nM
